In ChEMBL document CHEMBL1159369, “Isolation, structure, and HIV-1 integrase inhibitory activity of Cytosporic acid, a fungal metabolite produced by a Cytospora sp” (J Nat Prod, 2003) one finds IC50 and Activity data, which are given here for three compounds.

Assay [1] has as its target Human immunodeficiency virus type 1 integrase (Human immunodeficiency virus 1, UniProt Q7ZJM1). Put plainly: Inhibition of HIV1 integrase strand transfer activity.
For assay [2], the target named is Human immunodeficiency virus type 1 integrase (Human immunodeficiency virus 1) (UniProt Q7ZJM1). Put plainly: Inhibition of HIV1 integrase strand transfer activity at 200 uM.
Chain of Human immunodeficiency virus type 1 integrase (Human immunodeficiency virus 1) (Q7ZJM1 as listed by the source): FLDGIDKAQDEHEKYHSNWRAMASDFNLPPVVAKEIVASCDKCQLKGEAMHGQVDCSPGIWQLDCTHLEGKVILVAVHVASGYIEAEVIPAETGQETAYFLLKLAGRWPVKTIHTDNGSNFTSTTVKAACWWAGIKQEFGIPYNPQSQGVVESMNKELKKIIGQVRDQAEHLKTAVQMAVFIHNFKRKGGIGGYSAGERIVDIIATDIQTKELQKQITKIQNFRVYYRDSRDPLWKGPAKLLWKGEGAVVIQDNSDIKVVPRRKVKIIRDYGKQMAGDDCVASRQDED

Activity calls are given as the source filed them. No cut-off for these calls is given here.

Chain of Human immunodeficiency virus type 1 integrase (Q7ZJM1 whole entry): as the sequence (Q7ZJM1 as listed by the source) above

Compound `CCCC[C@@H](C)C1=C(O)C(=O)[C@@H]2C[C@H](C)C[C@H](C(=O)O)[C@H]2[C@]1(C)C(=O)CCO` [CYTOSPORIC ACID] had an IC50 in assay [1] of 20 µM. On to `CCCCCC[C@@H](C)C1=C(O)C(=O)[C@@H]2[C@H](O)[C@H](C)C[C@H](O)[C@H]2[C@]1(C)C(=O)CCO`, for which the result in assay [2] was inactive. For `CCCCCC[C@@H](C)C1=C(O)C(=O)[C@@H]2[C@H](O)[C@H](C)C[C@H](O)[C@H]2[C@]1(C)C(=O)/C=C\O` [AUSTRALIFUNGIN], in assay [1], the half-maximal inhibitory concentration (IC50) worked out at 20 µM.

The IC50 is the midpoint of a concentration-inhibition curve.
